Nine molecules from ChEMBL document CHEMBL1148877, “Evaluation of 4'-substituted bicyclic pyridones as non-steroidal inhibitors of steroid 5alpha-reductase” (Bioorg Med Chem Lett, 2007) can be followed below.

Structures are written as SMILES.

Experiment [1] has as its target T1, 3-oxo-5-alpha-steroid 4-dehydrogenase 1 (Homo sapiens) (UniProt P18405).
T1 sequence (whole entry): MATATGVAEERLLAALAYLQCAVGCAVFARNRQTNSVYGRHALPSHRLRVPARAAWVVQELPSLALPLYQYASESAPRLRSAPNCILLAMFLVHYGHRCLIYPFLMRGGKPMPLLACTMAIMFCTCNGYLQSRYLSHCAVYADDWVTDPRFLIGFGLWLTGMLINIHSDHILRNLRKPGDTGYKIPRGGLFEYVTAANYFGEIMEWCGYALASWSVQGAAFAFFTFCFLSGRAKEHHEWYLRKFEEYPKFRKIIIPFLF
Description: Inhibition of steroid 5-alpha reductase type 1 expressed in HEK 293 cells at 10 uM. The experiment is classed as cell-based. The conditions noted are these: HEK293.

The target in experiment [2] is T2, 3-oxo-5-alpha-steroid 4-dehydrogenase 2 (Homo sapiens) (UniProt P31213).
T2 sequence (whole entry): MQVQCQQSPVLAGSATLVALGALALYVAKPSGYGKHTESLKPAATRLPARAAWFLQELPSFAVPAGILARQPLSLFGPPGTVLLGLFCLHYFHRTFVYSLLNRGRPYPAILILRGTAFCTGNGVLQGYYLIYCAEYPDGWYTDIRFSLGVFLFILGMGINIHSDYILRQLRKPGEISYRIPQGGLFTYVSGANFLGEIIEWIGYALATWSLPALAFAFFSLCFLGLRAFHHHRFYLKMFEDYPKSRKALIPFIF
Description: Inhibition of steroid 5-alpha reductase type 2 expressed in HEK 293 cells at 10 uM. The conditions noted are these: HEK293. Format: cell-based.

Experiment [3] addresses T3, 3-oxo-5-alpha-steroid 4-dehydrogenase 1 (Homo sapiens, UniProt P18405).
T3 sequence (P18405 whole entry): T1 sequence (whole entry)
The experiment in a line: Inhibition of steroid 5-alpha reductase type 1 expressed in HEK 293 cells. Format: cell-based, HEK293.

Experiment [4] addresses T4, 3-oxo-5-alpha-steroid 4-dehydrogenase 2 (Homo sapiens, UniProt P31213).
T4 sequence (P31213 whole entry): T2 sequence (whole entry)
The experiment in a line: Inhibition of steroid 5-alpha reductase type 2 expressed in HEK 293 cells. Format: cell-based, HEK293.

The term inhibition denotes the relative decrease from the control value, in per cent. Molecule `C=CCNC(=O)COc1ccc(-c2ccc(=O)n(C)c2)cc1` registered an inhibition in experiment [1] of 6%. In the case of `CC(=O)SCCCCCCCCCCCCCCCC(=O)NCCOC(=O)CC/C=C/CNC(=O)COc1ccc(-c2ccc(=O)n(C)c2)cc1`, the inhibition in experiment [1] came to 43%. `C=CCNC(=O)COc1ccc(N2C=CC(=O)CC2C)cc1` (stereo unspecified): the inhibition in experiment [1] turned out to be 8%; in experiment [2] it was 12%. The term IC50 denotes the concentration needed to halve the response being measured. In the case of `CC(C)(C)NC(=O)[C@H]1CC[C@H]2[C@@H]3CC[C@H]4NC(=O)C=C[C@]4(C)[C@H]3CC[C@]12C` [FINASTERIDE], the IC50 in experiment [3] was found to be 453 nM; in experiment [4] it was 25 nM.

With `CC1CC(=O)C=CN1c1ccc(OCC(=O)N(C(C)C)C(C)C)cc1` (stereo unspecified), the inhibition in experiment [1] turned out to be 3%.

On to `CC(C)N(C(=O)COc1ccc(C2CCC(=O)N(C)C2)cc1)C(C)C` (stereo unspecified), for which the inhibition in experiment [1] came out at 6%.

As to `CC(=O)SCCCCCCCCCCCCCCCC(=O)NCCOCCOC(=O)CC/C=C/CNC(=O)COc1ccc(-c2ccc(=O)n(C)c2)cc1`, the inhibition in experiment [1] was 33%.

The molecule `CC(C)NC(=O)COc1ccc(-c2ccc(=O)n(C)c2)cc1` displayed an inhibition in experiment [1] of 8%. As to `Cn1cc(-c2ccc(C(=O)Cc3ccccc3)cc2)ccc1=O`, the inhibition in experiment [1] came to 61%.
